{"source": "ChEMBL document CHEMBL4715829", "about": "“Heterodimeric Rifampicin-Tobramycin conjugates break intrinsic resistance of Pseudomonas aeruginosa to doxycycline and chloramphenicol in vitro and in a Galleria mellonella in vivo model” (Eur J Med Chem, 2019)", "key": {"Pseudomonas aeruginosa [1]": {"system": "Pseudomonas aeruginosa", "test": "Antibacterial activity against Pseudomonas aeruginosa 91433 assessed as fractional inhibitory concentration in presence of chloramphenicol incubated for 18 hrs by broth microdilution assay", "type": "functional"}, "Pseudomonas aeruginosa [2]": {"system": "Pseudomonas aeruginosa", "test": "Antibacterial activity against Pseudomonas aeruginosa 259-96918 assessed as reduction in bacterial growth by measuring doxycycline MIC at 8 ug/ml incubated for 18 hrs in presence of doxycycline by broth microdilution assay (reference value: 32 ug/ml)", "type": "functional", "conditions": "dose 8 µg/ml"}, "Pseudomonas aeruginosa [3]": {"system": "Pseudomonas aeruginosa", "test": "Antibacterial activity against Pseudomonas aeruginosa 101243 assessed as fractional inhibitory concentration incubated for 18 hrs in presence of rifampicin by broth microdilution assay", "type": "functional"}, "Pseudomonas aeruginosa [4]": {"system": "Pseudomonas aeruginosa", "test": "Potentiation of chloramphenicol-induced bactericidal activity against Pseudomonas aeruginosa PAO1 assessed as reduction in bacterial colonies at 4.9 to 9.8 microM incubated for upto 24 hrs in LB medium in presence of chloramphenicol followed by plating on agar plate and measured after 20 hrs by time-kill assay", "type": "functional, organism-based", "conditions": "dose 4.9-9.8 µM, time hrs <=44"}, "Pseudomonas aeruginosa [5]": {"system": "Pseudomonas aeruginosa", "test": "Antibacterial activity against Pseudomonas aeruginosa 262-101856 assessed as fractional inhibitory concentration incubated for 18 hrs in presence of minocycline by broth microdilution assay", "type": "functional"}, "Pseudomonas aeruginosa [6]": {"system": "Pseudomonas aeruginosa", "test": "Antibacterial activity against Pseudomonas aeruginosa 262-101856 assessed as fractional inhibitory concentration index incubated for 18 hrs in presence of rifampicin by broth microdilution assay", "type": "functional"}, "Pseudomonas aeruginosa [7]": {"system": "Pseudomonas aeruginosa", "test": "Antibacterial activity against Pseudomonas aeruginosa 260-97103 assessed as fractional inhibitory concentration index incubated for 18 hrs in presence of minocycline by broth microdilution assay", "type": "functional"}, "Pseudomonas aeruginosa [8]": {"system": "Pseudomonas aeruginosa", "test": "Antibacterial activity against Pseudomonas aeruginosa 259-96918 assessed as fractional inhibitory concentration incubated for 18 hrs in presence of tigecycline by broth microdilution assay", "type": "functional"}, "Pseudomonas aeruginosa [9]": {"system": "Pseudomonas aeruginosa", "test": "Antibacterial activity against Pseudomonas aeruginosa 260-97103 infected in Galleria mellonella larvae assessed as survival of larvae at 75 mg/kg treated at 3 hrs post-infection in presence of doxycycline and measured after 18 hrs relative to control", "type": "functional"}, "Acinetobacter baumannii [10]": {"system": "Acinetobacter baumannii", "test": "Potentiation of chloramphenicol-induced antibacterial activity against Acinetobacter baumannii ATCC 17978 assessed as fold change in chloramphenicol MIC at 9.8 uM incubated for 18 hrs in presence of chloramphenicol by broth microdilution assay relative to control", "type": "functional"}, "Pseudomonas aeruginosa [11]": {"system": "Pseudomonas aeruginosa", "test": "Antibacterial activity against Pseudomonas aeruginosa 91433 assessed as fractional inhibitory concentration incubated for 18 hrs in presence of minocycline by broth microdilution assay", "type": "functional"}, "Pseudomonas aeruginosa [12]": {"system": "Pseudomonas aeruginosa", "test": "Potentiation of doxycycline-induced antibacterial activity against Pseudomonas aeruginosa 101243 assessed as fold change in doxycycline MIC at 9.8 uM incubated for 18 hrs in presence of doxycycline by broth microdilution assay relative to control", "type": "functional"}, "Pseudomonas aeruginosa [13]": {"system": "Pseudomonas aeruginosa", "test": "Antibacterial activity against Pseudomonas aeruginosa 259-96918 assessed as fractional inhibitory concentration index incubated for 18 hrs in presence of tigecycline by broth microdilution assay", "type": "functional"}, "Pseudomonas aeruginosa [14]": {"system": "Pseudomonas aeruginosa", "test": "Potentiation of chloramphenicol-induced antibacterial activity against Pseudomonas aeruginosa 114228 assessed as fold change in chloramphenicol MIC at 9.8 uM incubated for 18 hrs in presence of chloramphenicol by broth microdilution assay relative to control", "type": "functional"}, "Pseudomonas aeruginosa [15]": {"system": "Pseudomonas aeruginosa", "test": "Antibacterial activity against Pseudomonas aeruginosa 262-101856 assessed as fractional inhibitory concentration index incubated for 18 hrs in presence of minocycline by broth microdilution assay", "type": "functional"}, "Pseudomonas aeruginosa [16]": {"system": "Pseudomonas aeruginosa", "test": "Antibacterial activity against Pseudomonas aeruginosa 259-96918 assessed as fractional inhibitory concentration incubated for 18 hrs in presence of minocycline by broth microdilution assay", "type": "functional"}, "Enterobacter cloacae": {"system": "Enterobacter cloacae", "test": "Potentiation of chloramphenicol-induced antibacterial activity against Enterobacter cloacae ATCC 117029 assessed as fold change in chloramphenicol MIC at 9.8 uM incubated for 18 hrs in presence of chloramphenicol by broth microdilution assay relative to control", "type": "functional"}, "Pseudomonas aeruginosa [17]": {"system": "Pseudomonas aeruginosa", "test": "Antibacterial activity against Pseudomonas aeruginosa 91433 assessed as fractional inhibitory concentration index incubated for 18 hrs in presence of tigecycline by broth microdilution assay", "type": "functional"}, "HEK293": {"system": "HEK293", "test": "Cytotoxicity against human HEK293 cells assessed as cell viability at 50 uM incubated for 48 hrs in presence of doxycycline by prestoblue assay", "type": "cell-based", "conditions": "hek293, 48 h"}, "Pseudomonas aeruginosa [18]": {"system": "Pseudomonas aeruginosa", "test": "Antibacterial activity against Pseudomonas aeruginosa 262-101856 assessed as fractional inhibitory concentration incubated for 18 hrs in presence of tigecycline by broth microdilution assay", "type": "functional"}, "Pseudomonas aeruginosa [19]": {"system": "Pseudomonas aeruginosa", "test": "Antibacterial activity against Pseudomonas aeruginosa 100036 assessed as fractional inhibitory concentration incubated for 18 hrs in presence of rifampicin by broth microdilution assay", "type": "functional"}, "[20]": {"test": "Toxicity in Galleria mellonella larvae assessed as larval survival at 200 mg/kg measured after 96 hrs", "type": "organism-based", "conditions": "in vivo"}, "Pseudomonas aeruginosa [21]": {"system": "Pseudomonas aeruginosa", "test": "Antibacterial activity against Pseudomonas aeruginosa 114228 assessed as fractional inhibitory concentration incubated for 18 hrs in presence of rifampicin by broth microdilution assay", "type": "functional"}, "Pseudomonas aeruginosa [22]": {"system": "Pseudomonas aeruginosa", "test": "Antibacterial activity against Pseudomonas aeruginosa 100036 assessed as reduction in bacterial growth by measuring chloramphenicol MIC at 4 ug/ml incubated for 18 hrs in presence of chloramphenicol by broth microdilution assay (reference value: 1024 ug/ml)", "type": "functional", "conditions": "dose 4 µg/ml"}, "Pseudomonas aeruginosa [23]": {"system": "Pseudomonas aeruginosa", "test": "Antibacterial activity against Pseudomonas aeruginosa 262-101856 assessed as reduction in bacterial growth by measuring chloramphenicol MIC at 16 ug/ml incubated for 18 hrs in presence of chloramphenicol by broth microdilution assay (reference value: 2048 ug/ml)", "type": "functional", "conditions": "dose 16 µg/ml"}, "Pseudomonas aeruginosa [24]": {"system": "Pseudomonas aeruginosa", "test": "Potentiation of chloramphenicol-induced antibacterial activity against Pseudomonas aeruginosa 100036 assessed as fold change in chloramphenicol MIC at 7.6 uM incubated for 18 hrs in presence of chloramphenicol by broth microdilution assay relative to control", "type": "functional"}, "Pseudomonas aeruginosa [25]": {"system": "Pseudomonas aeruginosa", "test": "Antibacterial activity against Pseudomonas aeruginosa 264-101354 assessed as potentiation of chloramphenicol-induced antibacterial activity by measuring chloramphenicol MIC at 7.6 uM incubated for 18 hrs in presence of chloramphenicol by broth microdilution assay (reference value: 4096 ug/ml)", "type": "functional"}, "Pseudomonas aeruginosa [26]": {"system": "Pseudomonas aeruginosa", "test": "Antibacterial activity against Pseudomonas aeruginosa 259-96918 assessed as potentiation of chloramphenicol-induced antibacterial activity by measuring chloramphenicol MIC at 7.6 uM incubated for 18 hrs in presence of chloramphenicol by broth microdilution assay (reference value: 1024 ug/ml)", "type": "functional"}, "Pseudomonas aeruginosa [27]": {"system": "Pseudomonas aeruginosa", "test": "Potentiation of chloramphenicol-induced antibacterial activity against Pseudomonas aeruginosa 262-101856 assessed as fold change in chloramphenicol MIC at 7.6 uM incubated for 18 hrs in presence of chloramphenicol by broth microdilution assay relative to control", "type": "functional"}, "Pseudomonas aeruginosa [28]": {"system": "Pseudomonas aeruginosa", "test": "Potentiation of chloramphenicol-induced antibacterial activity against Pseudomonas aeruginosa 91433 assessed as fold change in chloramphenicol MIC at 7.6 uM incubated for 18 hrs in presence of chloramphenicol by broth microdilution assay relative to control", "type": "functional"}, "Acinetobacter baumannii [29]": {"system": "Acinetobacter baumannii", "test": "Potentiation of doxycycline-induced antibacterial activity against Acinetobacter baumannii ATCC 17978 assessed as fold change in doxycycline MIC at 7.6 uM incubated for 18 hrs in presence of doxycycline by broth microdilution assay relative to control", "type": "functional"}, "Pseudomonas aeruginosa [30]": {"system": "Pseudomonas aeruginosa", "test": "Antibacterial activity against Pseudomonas aeruginosa 264-101354 assessed as potentiation of doxycycline-induced antibacterial activity by measuring doxycycline MIC at 7.6 uM incubated for 18 hrs in presence of doxycycline by broth microdilution assay (reference value: 64 ug/ml)", "type": "functional"}}, "note": "Active and inactive are the calls of the source. The calls are words filed in the database; no cut-off is given here."}
{"compound": "NC[C@H]1O[C@H](O[C@H]2[C@H](O)[C@@H](O[C@H]3O[C@H](CO)[C@@H](O)[C@H](N)[C@H]3O)[C@H](N)C[C@@H]2N)[C@H](N)C[C@@H]1O", "note": "[TOBRAMYCIN]", "values": [{"measurement": "FIC", "setting": "Pseudomonas aeruginosa [1]", "result": 0.5}, {"measurement": "MIC", "setting": "Pseudomonas aeruginosa [2]", "result": 32, "unit": "µg/mL"}]}
{"compound": "CO[C@H]1/C=C/O[C@@]2(C)Oc3c(C)c(O)c4c(O)c(c(/C=N/N5CCN(Cc6cn(CCCCCCO[C@@H]7[C@@H](O[C@H]8O[C@H](CO)[C@@H](O)[C@H](N)[C@H]8O)[C@H](N)C[C@H](N)[C@H]7O[C@H]7O[C@H](CN)[C@@H](O)C[C@H]7N)nn6)CC5)c(O)c4c3C2=O)NC(=O)/C(C)=C\\C=C\\[C@H](C)[C@H](O)[C@@H](C)[C@@H](O)[C@@H](C)[C@H](OC(C)=O)[C@@H]1C.Cl.Cl.Cl.Cl.Cl", "values": [{"measurement": "FIC", "setting": "Pseudomonas aeruginosa [3]", "result": 0.063}, {"measurement": "Activity", "setting": "Pseudomonas aeruginosa [4]", "result": "Active"}, {"measurement": "FIC", "setting": "Pseudomonas aeruginosa [5]", "result": "<0.063"}, {"measurement": "fractional inhibitory concentration index (FICI)", "setting": "Pseudomonas aeruginosa [6]", "result": "<0.51"}, {"measurement": "fractional inhibitory concentration index (FICI)", "setting": "Pseudomonas aeruginosa [7]", "result": "<0.13"}, {"measurement": "FIC", "setting": "Pseudomonas aeruginosa [8]", "result": "<0.125"}, {"measurement": "survival at 75 mg/kg", "setting": "Pseudomonas aeruginosa [9]", "result": 75, "unit": "%"}, {"measurement": "fold change (FC)", "setting": "Acinetobacter baumannii [10]", "result": 0}, {"measurement": "FIC", "setting": "Pseudomonas aeruginosa [11]", "result": "<0.125"}, {"measurement": "fold change (FC)", "setting": "Pseudomonas aeruginosa [12]", "result": 4}, {"measurement": "fractional inhibitory concentration index (FICI)", "setting": "Pseudomonas aeruginosa [13]", "result": "<0.25"}, {"measurement": "fold change (FC)", "setting": "Pseudomonas aeruginosa [14]", "result": 4}, {"measurement": "fractional inhibitory concentration index (FICI)", "setting": "Pseudomonas aeruginosa [15]", "result": "<0.09"}, {"measurement": "FIC", "setting": "Pseudomonas aeruginosa [16]", "result": "<0.125"}, {"measurement": "fold change (FC)", "setting": "Enterobacter cloacae", "result": 0}, {"measurement": "fractional inhibitory concentration index (FICI)", "setting": "Pseudomonas aeruginosa [17]", "result": 1.13}, {"measurement": "Activity", "setting": "HEK293", "result": "Non-Toxic"}, {"measurement": "FIC", "setting": "Pseudomonas aeruginosa [18]", "result": "<0.063"}, {"measurement": "FIC", "setting": "Pseudomonas aeruginosa [19]", "result": 0.063}, {"measurement": "survival at 96 h", "setting": "[20]", "result": 97, "unit": "%"}, {"measurement": "FIC", "setting": "Pseudomonas aeruginosa [21]", "result": "<0.031"}]}
{"compound": "CO[C@H]1/C=C/O[C@@]2(C)Oc3c(C)c(O)c4c(O)c(c(/C=N/N5CCN(C)CC5)c(O)c4c3C2=O)NC(=O)/C(C)=C\\C=C\\[C@H](C)[C@H](O)[C@@H](C)[C@@H](O)[C@@H](C)[C@H](OC(C)=O)[C@@H]1C", "note": "[RIFAMPIN]", "values": [{"measurement": "MIC", "setting": "Pseudomonas aeruginosa [22]", "result": 1020, "unit": "µg/mL"}, {"measurement": "MIC", "setting": "Pseudomonas aeruginosa [23]", "result": 2050, "unit": "µg/mL"}]}
{"compound": "CO[C@H]1/C=C/O[C@@]2(C)Oc3c(C)c(O)c4c(O)c(c(/C=N/N5CCN(Cc6cn(CCCCCCCCCCCCO[C@@H]7[C@@H](O[C@H]8O[C@H](CO)[C@@H](O)[C@H](N)[C@H]8O)[C@H](N)C[C@H](N)[C@H]7O[C@H]7O[C@H](CN)[C@@H](O)C[C@H]7N)nn6)CC5)c(O)c4c3C2=O)NC(=O)/C(C)=C\\C=C\\[C@H](C)[C@H](O)[C@@H](C)[C@@H](O)[C@@H](C)[C@H](OC(C)=O)[C@@H]1C.O=C(O)C(F)(F)F.O=C(O)C(F)(F)F.O=C(O)C(F)(F)F.O=C(O)C(F)(F)F.O=C(O)C(F)(F)F", "values": [{"measurement": "fold change (FC)", "setting": "Pseudomonas aeruginosa [24]", "result": 4}, {"measurement": "MIC", "setting": "Pseudomonas aeruginosa [25]", "result": 128, "unit": "µg/mL"}, {"measurement": "MIC", "setting": "Pseudomonas aeruginosa [26]", "result": 512, "unit": "µg/mL"}, {"measurement": "fold change (FC)", "setting": "Pseudomonas aeruginosa [27]", "result": 4}, {"measurement": "fold change (FC)", "setting": "Pseudomonas aeruginosa [28]", "result": 4}, {"measurement": "fold change (FC)", "setting": "Acinetobacter baumannii [29]", "result": 0}, {"measurement": "MIC", "setting": "Pseudomonas aeruginosa [30]", "result": 1, "unit": "µg/mL"}]}
